Experimental data as given in patent US20030171307A1, “Azalide antibiotic compositions” (Pfizer Inc., priority 2001, published 2003).

Assay: Equilibration of azalide isomers I and II in heated aqueous acid, HPLC (Table 1)
Assay type: physicochemical
Conditions: isomer I prior to equilibration, for comparison

% Equilibrium mixture of isomers: 98.39%
% Impurities: 1.61%
SMILES: CCCNC[C@]1(O)[C@H](C)O[C@@H](O[C@H]2[C@H](C)[C@@H](OC3O[C@H](C)C[C@H](N(C)C)[C@H]3O)C(C)(O)C[C@@H](C)CN[C@H](C)[C@@H](O)[C@](C)(O)[C@@H](CC)OC(=O)[C@@H]2C)C[C@@]1(C)OC (single isomer, unassigned) [isomer I]
